Assay results: patent US5470836A, “Paromomycin or its derivatives or salts thereof in combination with sodium stirogluconate for parenteral treatment of human parasitic diseases” (priority 1988, dated 1995)
Values joined by “and” are separate entries in the source; they are usually repeats but may differ in a detail not shown here. Equal entries are not always repeated. “Also recorded” adds a separate entry of the source.

Key:
[1] = Drug safety: adverse effects and complications (Example 2); type: in vivo, human
Method: (§1) Patients newly diagnosed with visceral leighmaniasis, confirmed by the presence of leishmaniasis amastigotes in spleen aspirates, were allocated randomly to groups subjected to the following treatments:
(§2) 1) IV/IM sodium stibogluconate (SbV) 20 mg/kg body weight once per day;
(§3) 2) IM paromomycin sulphate (PM) 14-16 mg/kg body weight once per day;
(§4) 3) IV/IM sodium stibogluconate 20 mg/kg body weight once per day and paromomycin sulphate 14-16 mg/kg body weight once per day.
(§5) All treatments were administered until the first negative spleen aspirate was obtained, or for 20 consecutive days regardless of aspirate findings.
(§6) The following procedures were conducted for patient assessment at intake and at suitable intervals during and after treatment: clinical history writeup: physical examination: body weight: chest X-ray: ECG tracing: liver and kidney function tests: blood picture and blood smears (to rule out malaria): complete urinalysis: stool examination: prothrombin time: and spleen aspirate smear examination by the method of Chulay & Bryceson, Quantitations of amastigotes of leishmania donovani in smears of splenic aspirates from patients with visceral leishmaniasis, American Journal of Tropical Medicine and Hygiene, 32, 1983, 475-479.
(§7) Drug safety was assessed for each treatment regime in terms of incidence of drug-related signs and symptoms and of laboratory test results return abnormalities. The assembled data were processed statistically by the Fisher's exact test (chi-square) and Pearson's correlation coefficient.

visceral leishmaniasis [2] = assay: Clinical, haematologic and parasite indices during treatment and follow-up (Example 2); type: in vivo, human; conditions: mean
Method: as §1, §2, §3, §4, §5, §6

[3] = tested on: visceral leishmaniasis (leishmaniasis amastigotes in spleen aspirates); assay: Randomised clinical trial in newly diagnosed visceral leishmaniasis: clinical and parasitologic cure (Example 2); type: in vivo, human; conditions: for Clinical cures, % / Clinical cures, No.: at termination, complete abatement of initial symptoms with marked reduction of spleen size; for Apparent cures, % / Apparent cures, No.: negative spleen aspirate smears at termination of treatment; for Failures, % / Failures, No.: partial cures and relapses; for Partial cures, % / Partial cures, No.: persistence of low parasite counts in terminal spleen aspirates; for Definite cures, % / Definite cures, No.: persisting clinical cure with negative spleen aspirates 6 months after termination; for Relapses, % / Relapses, No.: reappearance of leishmanial parasites after an apparent cure; for Mean treatment duration: treated until first negative spleen aspirate or for 20 consecutive days
Method: as §1, §2, §3, §4, §5
Exclusion criteria were: […]; known allergy to aminoglycoside compounds: pregnancy; haemoglobin assay below 40 g/l; abnormal prothrombin time; impaired liver or renal function; major concurrent infection; previous drug treatment for leishmaniasis; and spleen smear-parasite grading of less than 4+.
as §6
Treatment of effectiveness was graded under the following headings:
Clinical cure: complete abatement of initial symptoms with marked reduction of spleen size;
Partial cure: persistence of low parasite counts in terminal spleen aspirates;
Apparent cure: negative spleen aspirate smears at termination of treatment;
Relapse: reappearance of leishmanial parasites after an apparent cure;
Definite cure: persisting clinical cure with negative spleen aspirates 6 months after termination of treatment;
Failures: partial cures and relapses.
as §7

visceral leishmaniasis [4] = conditions: parenteral, 20 mg/kg body weight over 30 days; cited from earlier work
Kala-azar = conditions: 20 mg SbV/kg daily for 40 days; cited from earlier work
[5] = Blood biochemistry during treatment and follow-up (Example 2); type: in vivo, human
Method: as §2, §3, §4, §5, §6
The assembled data were processed statistically by the Fisher's exact test (chi-square) and Pearson's correlation coefficient.

## vitamin K
[1]; vitamin K 10 mg daily for 5 days, low initial haemoglobin and prolonged prothrombin time
  incidence of epistaxis: significantly reduced

## NC[C@@H]1O[C@H](O[C@H]2[C@@H](O)[C@H](O[C@@H]3[C@@H](O)[C@H](N)C[C@H](N)[C@H]3O[C@H]3O[C@H](CO)[C@@H](O)[C@H](O)[C@H]3N)O[C@@H]2CO)[C@H](N)[C@@H](O)[C@@H]1O [PM, paromomycin sulphate]
[1]; in vivo
  Adverse effects, %: 0%
  Adverse effects, No.: 0 No.
  antibiotic treatment needed for pneumonia: did not need additional antibiotic medication
  bouts of pneumonia, cases: 4 cases
  side effects (in words): no side effects
Visceral leishmaniasis [2]; Day 0 (intake)
  Eosinophil count: 0 /cu mm
  Heart rate: 105 min⁻¹
  Hemoglobin assay: 7.1 g/dL
  Parasite grading: 5
  Spleen size: 15.5 cm
  Temp: 38.3 °C
  Weight: 34.0 kg
Visceral leishmaniasis [2]; Day 20
  Eosinophil count: 2 /cu mm
  Heart rate: 84 min⁻¹
  Hemoglobin assay: 10.0 g/dL
  Parasite grading: 1
  Spleen size: 8.4 cm
  Temp: 36.1 °C
  Weight: 37.0 kg
Visceral leishmaniasis [2]; Day 75
  Eosinophil count: 1 /cu mm
  Heart rate: 82 min⁻¹
  Hemoglobin assay: 12.3 g/dL
  Parasite grading: 1
  Spleen size: 4.3 cm
  Temp: 36.1 °C
  Weight: 39.1 kg
[3]
  Clinical cures, %: 100%
  Clinical cures, No.: 19 No.
  Apparent cures, %: 84.2%
  Apparent cures, No.: 16 No.
  Failures, %: 21%
  Failures, No.: 4 No.
  Partial cures, %: 15.8%
  Partial cures, No.: 3 No.
  Definite cures, %: 79%
  Definite cures, No.: 15 No.
  Relapses, %: 5.2%
  Relapses, No.: 1 No.
  Mean treatment duration: 19 days
[3]; comparison of treatment groups
  incidence of relapses (in words): least incidence of relapses; also recorded: smallest share of relapses; also recorded: low rate of relapses
  parasitologic effectiveness (in words): best results
  share of partial cures (in words): highest share of partial cures

## sodium stibogluconate [SbV]
[1]; in vivo
  Adverse effects, %: 27%
  Adverse effects, No.: 3 No.
  bouts of pneumonia, cases: 5 cases
  side effects (in words): distinctly more side effects
[1]; patients with pneumonia
  antibiotic treatment needed for pneumonia: required antibiotic treatment
Visceral leishmaniasis [2]; Day 0 (intake)
  Eosinophil count: 0 /cu mm
  Heart rate: 112 min⁻¹
  Hemoglobin assay: 7.6 g/dL
  Parasite grading: 5
  Spleen size: 14.5 cm
  Temp: 38.5 °C
  Weight: 33.2 kg
Visceral leishmaniasis [2]; Day 20
  Eosinophil count: 1 /cu mm
  Heart rate: 92 min⁻¹
  Hemoglobin assay: 8.9 g/dL
  Parasite grading: 1
  Spleen size: 7 cm
  Temp: 36.2 °C
  Weight: 27.3 kg
Visceral leishmaniasis [2]; Day 75
  Eosinophil count: 1 /cu mm
  Heart rate: 80 min⁻¹
  Hemoglobin assay: 11.6 g/dL
  Parasite grading: 1
  Spleen size: 5 cm
  Temp: 36.9 °C
  Weight: 36.7 kg
Visceral leishmaniasis [4]
  cure rate: about 80%
[3]
  Clinical cures, %: 100%
  Clinical cures, No.: 11 No.
  Apparent cures, %: 90.9%
  Apparent cures, No.: 10 No.
  Failures, %: 45.5% and 45. %
  Failures, No.: 5 No.
  Partial cures, %: 9.1%
  Partial cures, No.: 1 No.
  Definite cures, %: 54.5%
  Definite cures, No.: 6 No.
  Relapses, %: 36.4%
  Relapses, No.: 4 No.
  Mean treatment duration: 17 days
[3]; comparison of treatment groups
  parasitologic effectiveness (in words): by far the least effective of all
Kala-azar
  failures: 8%
[5]; Day 0
  ALAT (Alanine aminotransferase): 25.4 I.U./l
  ALP (Alkaline phosphatase): 87.6 I.U./l
  ASAT (Aspartate aminotransferase): 20.2 I.U./l
  Albumin: 31.3 g/L
  BUN assay: 8.2 mmol/L
  Bilirubin: 6.4 µmol/L
  Creatinine: 73.6 µmol/L
[5]; Day 10
  ALAT (Alanine aminotransferase): 24.0 I.U./l
  ALP (Alkaline phosphatase): 79.1 I.U./l
  ASAT (Aspartate aminotransferase): 19.2 I.U./l
  Albumin: 30.3 g/L
  BUN assay: 8.1 mmol/L
  Bilirubin: 4.1 µmol/L
  Creatinine: 68.0 µmol/L
[5]; Day 20
  ALAT (Alanine aminotransferase): 22.0 I.U./l
  ALP (Alkaline phosphatase): 71.0 I.U./l
  ASAT (Aspartate aminotransferase): 21.0 I.U./l
  Albumin: 29.5 g/L
  BUN assay: 4.0 mmol/L
  Bilirubin: 3.8 µmol/L
  Creatinine: 53.0 µmol/L
[5]; Day 75
  ALAT (Alanine aminotransferase): 25.3 I.U./l
  ALP (Alkaline phosphatase): 83.7 I.U./l
  ASAT (Aspartate aminotransferase): 25.5 I.U./l
  Albumin: 36.6 g/L
  BUN assay: 3.8 mmol/L
  Bilirubin: 4.5 µmol/L
  Creatinine: 73.5 µmol/L
[5]; Day 195
  ALAT (Alanine aminotransferase): 23.0 I.U./l
  ALP (Alkaline phosphatase): 84.0 I.U./l
  ASAT (Aspartate aminotransferase): 22.0 I.U./l
  Albumin: 40.0 g/L
  BUN assay: 4.0 mmol/L
  Bilirubin: 4.0 µmol/L
  Creatinine: 78.9 µmol/L
